According to patent publication US20070129344A1, “Bicyclic 6-alkylidene-penem beta-lactamase inhibitors and beta-lactam antibiotic combination: a broad spectrum antibiotic” (priority 2005, published 2007):
≈ marks a conversion by molar mass, not a printed value. Where a name gives a salt, the structure may show the parent alone. Read-outs that look alike come from different tables or passages of the source.

Key:
E. coli GC 2009 (TEM-10) = test: MIC microbroth dilution; β-lactamase class A (ESBL); format: cell-based
Procedure: (§1) The in vitro activities of the antibiotics were determined by the microbroth dilution method as recommended by the National Committee for Clinical Laboratory Standards (NCCLS). (NCCLS. 2000. Methods for Dilution Antimicrobial Susceptibility Tests for Bacteria That Grow Aerobically; Approved Standards: M7-A5, vol. 19. National Committee for Clinical Laboratory Standards, Villanova, Pa.). Mueller-Hinton II broth (MHBII)(BBL Cockeysville, Md.), was used for the testing procedure. […]. The plates were incubated for 18-22 hours at 35° C. in ambient air.

[1] = tested on: K. pneumoniae GC 7645 TEM-30 TEM-1 KPC-2 SHV-12; test: MIC microbroth dilution; β-lactamase class A, A (Cb'ase), A (ESBL), A(IRT); format: cell-based
Procedure: as §1

E. coli GC 2906 (Imi-1) = test: MIC microbroth dilution; β-lactamase class A (Cb'ase); format: cell-based
Procedure: as §1

[2] = tested on: C. freundii PT 1499 Stably derepressed AmpC; test: MIC microbroth dilution; β-lactamase class C; format: cell-based
Procedure, shortened: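 Susceptibility is determined by NCCLS microbroth dilution in MHBII medium, with incubation at 35° C. in ambient air for 18-22 hours.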

[3] = tested on: P. aeruginosa GC 4161 Stably derepressed AmpC; test: MIC microbroth dilution; β-lactamase class C; format: cell-based
Procedure, shortened: (§2)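 Antibiotic activity was measured in vitro by microbroth dilution following NCCLS guidance. Mueller-Hinton II broth served as the test medium, and plates were kept in ambient air at 35° C. for 18-22 hours.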

[4] = tested on: C. freundii GC 4187 Stably derepressed AmpC; test: MIC microbroth dilution; β-lactamase class C; format: cell-based
Procedure, shortened: as §2

[5] = tested on: S. marcescens GC 4132 Stably derepressed AmpC; test: MIC microbroth dilution; β-lactamase class C; format: cell-based
Procedure, shortened: as §2

[6] = tested on: S. typhimurium GC 4198 SHV-1 CTX-M-5; test: MIC microbroth dilution; β-lactamase class A, A (ESBL); format: cell-based
Procedure: as §1

[7] = tested on: A. baumannii PT 9444 PTZ-R; test: MIC microbroth dilution; β-lactamase class not determined; format: cell-based
Procedure: as §1

[8] = tested on: E. coli GC 2883 (OXA-10/PSE-2); test: MIC microbroth dilution; β-lactamase class D; format: cell-based
Procedure: as §1

E. coli GC 2253 (IRT-2) = test: MIC microbroth dilution; β-lactamase class A (IRT); format: cell-based
Procedure: as §1

[9] = tested on: P. aeruginosa PT 9025 PTZ-R; test: MIC microbroth dilution; format: cell-based
Procedure: as §1

E. coli ATCC 35218 TEM-1 = test: MIC microbroth dilution; β-lactamase class A; format: cell-based
Procedure: as §1

[10] = tested on: A. baumannii GC 7685 TEM-1; test: MIC microbroth dilution; β-lactamase class A; format: cell-based
Procedure: as §1

[11] = tested on: E. coli GC 2021 (TEM-10 + pl 6.3); test: MIC microbroth dilution; β-lactamase class A (ESBL); format: cell-based; conditions: Cefepime + 4 ug/ml Compound 1
Procedure: as §1

[12] = tested on: E. cloacae GC 7055 TEM-1, SHV-12 Amp C inducable; format: cell-based; conditions: Cefepime + 4 ug/ml Compound 1
Procedure: (§3) The in vitro activities of the antibiotics were determined by the microbroth dilution method as recommended by the National Committee for Clinical Laboratory Standards (NCCLS). (NCCLS. 2000. Methods for Dilution Antimicrobial Susceptibility Tests for Bacteria That Grow Aerobically; Approved Standards: M7-A5, vol. 19. National Committee for Clinical Laboratory Standards, Villanova, Pa.). Mueller-Hinton II broth (MHBII)(BBL Cockeysville, Md.), was used for the testing procedure. […] The plates were incubated for 18-22 hours at 35° C. in ambient air.

[13] = tested on: E. cloacae GC 1713 AmpC-constitutive; format: cell-based; conditions: Cefepime + 4 ug/ml Compound 1
Procedure: as §3

[14] = tested on: E. cloacae PT 197 Stably derepressed AmpC; format: cell-based; conditions: Cefepime + 4 ug/ml Compound 1
Procedure: as §3

K. pn GC 1827 (TEM-3) = test: MIC microbroth dilution; β-lactamase class A (ESBL); format: cell-based, K. pneumoniae; conditions: Cefepime + 4 ug/ml Compound 1
Procedure: as §1

class C enzyme AmpC = class C enzyme AmpC (Enterobacter cloacae, UniProt P05364); test: β-Lactamase inhibition IC50 (nitrocefin, spectrophotometric); format: biochemical
Procedure: (§4) β-Lactamase inhibitory activity of the penem inhibitors was determined spectrophotometrically as described by Bush et al., [Bush, K., Macalintal, C., Rasmussen, B. A., Lee, V. and Yang, Y. Antimicrobial Agents and Chemotherapy 1993, 37, 851]. Homogeneously purified class A β-lactamases TEM-1 from E. coli and Imi-1 from Enterobacter cloacae, class B enzyme CcrA from Bacteroides fragilis and class C enzyme AmpC from Enterobacter cloacae were employed in the assay. The enzyme concentrations for TEM-1, Imi-1, CcrA and AmpC were 4.3, 7.1, 1.2 and 2.1 nM, respectively. A wide range of inhibitor concentrations were prepared in 50 mM PO4, pH 7.0 to include the possible IC50 values. The substrate used to initiate the enzyme reaction was nitrocefin at 50 μg/ml in the same buffer as the inhibitor. Initially the enzyme and inhibitor (20 μl each) were preincubated for 10 minutes at 25° C. prior to the addition of 160 μl volume of nitrocefin. Initial rates of hydrolysis were monitored for 5 minutes at 495 nm using a Molecular Devices Spectra Max 250 with kinetic protocol of SoftMax Program. Readings from the Spectra Max 250 were exported and transferred to Microsoft Excel. The percent of inhibition of each inhibitor concentration was calculated based on the control enzyme activity. The inhibitor concentration that caused a 50% reduction in the enzymatic activity (IC50) was determined graphically.

[15] = target: class A β-lactamase Imi-1 (Enterobacter cloacae, UniProt Q46991); test: as above; format: biochemical
Procedure: as §4

class B enzyme CcrA = class B enzyme CcrA (Bacteroides fragilis, UniProt P25910); test: as above; format: biochemical; conditions: enzyme 1.2 nM, 10 min preincubation at 25° C., read-out: IC50 Class B Ccr
Procedure: as §4

[16] = Escherichia coli, Cefepime alone, control of Compound 1 test
[17] = Citrobacter freundii, Cefepime alone, control of Compound 1 test
[18] = Cefepime alone, control of Compound 2 test

class B enzyme CcrA, sequence (P25910 19-249): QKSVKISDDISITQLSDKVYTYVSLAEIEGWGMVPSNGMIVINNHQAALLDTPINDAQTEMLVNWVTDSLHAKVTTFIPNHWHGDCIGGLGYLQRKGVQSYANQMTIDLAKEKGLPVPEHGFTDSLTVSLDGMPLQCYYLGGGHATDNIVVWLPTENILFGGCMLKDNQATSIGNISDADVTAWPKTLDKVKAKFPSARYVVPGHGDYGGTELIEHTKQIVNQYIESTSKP
class A β-lactamase Imi-1, sequence (Q46991 entry or part of it): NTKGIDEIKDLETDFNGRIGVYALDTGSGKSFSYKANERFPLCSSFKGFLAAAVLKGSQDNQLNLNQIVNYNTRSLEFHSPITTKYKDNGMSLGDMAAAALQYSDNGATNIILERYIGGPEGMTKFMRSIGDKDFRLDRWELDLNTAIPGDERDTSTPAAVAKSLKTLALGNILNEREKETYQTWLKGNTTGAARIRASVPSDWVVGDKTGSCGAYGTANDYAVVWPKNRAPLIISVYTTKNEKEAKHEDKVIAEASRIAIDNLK
class C enzyme AmpC, sequence (P05364 21-381): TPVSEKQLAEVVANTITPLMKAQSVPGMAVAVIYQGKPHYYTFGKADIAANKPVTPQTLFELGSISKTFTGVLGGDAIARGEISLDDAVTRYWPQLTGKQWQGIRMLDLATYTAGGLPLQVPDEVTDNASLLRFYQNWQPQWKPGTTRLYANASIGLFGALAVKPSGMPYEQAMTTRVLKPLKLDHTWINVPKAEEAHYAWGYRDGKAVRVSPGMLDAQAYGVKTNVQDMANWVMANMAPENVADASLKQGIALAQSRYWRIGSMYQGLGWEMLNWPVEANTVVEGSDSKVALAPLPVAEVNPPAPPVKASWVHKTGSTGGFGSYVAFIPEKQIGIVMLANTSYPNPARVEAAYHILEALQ

SMILES: CO/N=C(\C(=O)N[C@@H]1C(=O)N2C(C(=O)[O-])=C(C[N+]3(C)CCCC3)CS[C@H]12)c1csc(N)n1 [Cefepime, reference compound]
- MIC (E. coli GC 2009 (TEM-10); E. coli GC 2009, Cefepime alone, control of Compound 2 test): >16 µg/mL
- MIC (E. coli GC 2009 (TEM-10); Escherichia coli): > 16 µg/mL
- MIC ([1]; K. pneumoniae GC 7645, Cefepime alone, control of Compound 2 test): >16 µg/mL
- MIC ([1]; Klebsiella pneumoniae): > 16 µg/mL
- MIC (E. coli GC 2906 (Imi-1); [16]): 0.5 µg/mL (≈ 1.04 µM)
- MIC [2, 17]: 4 µg/mL (≈ 8.32 µM)
- MIC ([2]; Citrobacter freundii, Cefepime alone, control of Compound 2 test): 2 µg/mL (≈ 4.16 µM)
- MIC ([3]; P. aeruginosa GC 4161, Cefepime alone, control of Compound 2 test): >16 µg/mL
- MIC ([3]; Pseudomonas aeruginosa): > 16 µg/mL
- MIC [4, 17]: 2 µg/mL (≈ 4.16 µM)
- MIC [5, 18]: 0.50 µg/mL (≈ 1.04 µM)
- MIC ([6]; S. typhimurium GC 4198, Cefepime alone, control of Compound 2 test): >16 µg/mL
- MIC ([6]; Salmonella enterica, TYPHIMURIUM): > 16 µg/mL
- MIC ([7]; A. baumannii PT 9444, Cefepime alone, control of Compound 2 test): >16 µg/mL
- MIC ([7]; Acinetobacter baumannii, PT9444PTZR): > 16 µg/mL
- MIC [8, 18]: 0.06 µg/mL (≈ 0.125 µM)
- MIC (E. coli GC 2253 (IRT-2); [16]): 0.03 µg/mL (≈ 0.0624 µM)
- MIC ([9]; P. aeruginosa PT 9025, Cefepime alone, control of Compound 2 test): >16 µg/mL
- MIC ([9]; Pseudomonas aeruginosa, PT9025PTZR): > 16 µg/mL
- MIC (E. coli ATCC 35218 TEM-1; E. coli ATCC 35218, Cefepime alone, control of Compound 2 test): 0.03 µg/mL (≈ 0.0624 µM)
- MIC (E. coli ATCC 35218 TEM-1; Escherichia coli, ATCC35218): 0.03 µg/mL (≈ 0.0624 µM)
- MIC ([10]; A. baumannii GC 7685, Cefepime alone, control of Compound 2 test): >16 µg/mL
- MIC ([10]; Acinetobacter baumannii, GC7685TEM1): > 16 µg/mL

SMILES: O=C([O-])C1=CS[C@@H]2/C(=C\c3cn4c(n3)CCC4)C(=O)N12.[Na+] [Compound 1, (5R), (6Z)-6-(6,7-Dihydro-5H-pyrrolo[1,2-a]imidazol-2-ylmethylene)-7-oxo-4-thia-1-aza-bicyclo[3.2.0]hept-2-ene-2-carboxylic Acid, Sodium Salt]
- MIC [11]: 0.12 µg/mL
- MIC (E. coli GC 2009 (TEM-10); E. coli GC 2009, Cefepime + 4 ug/ml Compound 1): 0.12 µg/mL
- MIC ([1]; K. pneumoniae GC 7645, Cefepime + 4 ug/ml Compound 1): >16 µg/mL
- MIC (E. coli GC 2906 (Imi-1); Cefepime + 4 ug/ml Compound 1): 0.06 µg/mL
- MIC ([2]; Cefepime + 4 ug/ml Compound 1): 0.03 µg/mL
- MIC ([3]; P. aeruginosa GC 4161, Cefepime + 4 ug/ml Compound 1): 16 µg/mL
- MIC ([4]; Cefepime + 4 ug/ml Compound 1): 0.12 µg/mL
- MIC ([5]; Cefepime + 4 ug/ml Compound 1): 0.12 µg/mL
- MIC [12]: 0.06 µg/mL
- MIC [13]: 0.12 µg/mL
- MIC [14]: 0.50 µg/mL
- MIC ([6]; S. typhimurium GC 4198, Cefepime + 4 ug/ml Compound 1): 0.50 µg/mL
- MIC ([7]; A. baumannii PT 9444, Cefepime + 4 ug/ml Compound 1): 16 µg/mL
- MIC ([8]; Cefepime + 4 ug/ml Compound 1): 0.06 µg/mL
- MIC (K. pn GC 1827 (TEM-3)): 0.03 µg/mL
- IC50 (class C enzyme AmpC; enzyme 2.1 nM, 10 min preincubation at 25° C., nitrocefin, read-out: IC50 Class C AmpC): 4.8 nM
- IC50 ([15]; enzyme 7.1 nM, 10 min preincubation at 25° C., nitrocefin, read-out: IC50 Class A Imi): 7.8 nM
- IC50 (class B enzyme CcrA): 66 nM
- MIC (E. coli GC 2253 (IRT-2); Cefepime + 4 ug/ml Compound 1): 0.03 µg/mL
- MIC ([9]; P. aeruginosa PT 9025, Cefepime + 4 ug/ml Compound 1): 16 µg/mL
- MIC (E. coli ATCC 35218 TEM-1; E. coli ATCC 35218, Cefepime + 4 ug/ml Compound 1): 0.03 µg/mL
- MIC ([10]; A. baumannii GC 7685, Cefepime + 4 ug/ml Compound 1): 16 µg/mL

SMILES: O=C(O)C1=CS[C@@H]2/C(=C\c3cn4c(n3)COCC4)C(=O)N12 [Compound 2, (5R), (6Z)-6-(5,6-Dihydro-8H-imidazo[2.1-c][1,4]oxazin-2-ylmethylene)-7-oxo-4-thia-1-azabicyclo[3.2.0]hept-2-ene-2-carboxylic Acid, Sodium Salt]
- IC50 (class C enzyme AmpC): 2.2 nM
- IC50 [15]: 20 nM
- IC50 (class B enzyme CcrA): 230 nM
